Measurements taken from US6310051A, “Use of chelating agents in the treatment of atherosclerotic conditions” (Nycomed Imaging AS, priority 1997, dated 2001).

Tests used:
[1] = system: human LDL; assay: Copper-catalyzed oxidation of human LDL in vitro, increase in absorbance at 234 nm (diene-products); format: biochemical; details: 5 μM CuCl2, 30° C., PBS; for inhibition of LDL oxidation, concentration dependence: absorbance at 234 nm over 225 minutes; for inhibition of LDL oxidation at 5 μM: 5 μM compound; for inhibition of LDL oxidation at 5 μM / inhibition of LDL oxidation at 10 μM: 234 nm; for inhibition of LDL oxidation at 10 μM: 10 μM compound
Procedure: Copper-catalyzed LDL-oxidation was monitored by following the increase in absorbance at wavelength 234 nm over time (representing increase in diene-products).
Human LDL (1.025<d<1.050 g/ml) was freshly isolated (from sera of normolipidemic donors who had fasted overnight) by sequential ultracentrifugation, in the presence of EDTA (1.4 mg/ml) to inihibit lipid peroxidation. LDL was finally dialyzed under nitrogen against 10 mM phosphate buffer with 160 mM NaCl, pH 7.4 (PBS), for 24 h at 4° C.
Assays were performed at 30° C. in PBS by mixing 200 μl of the LDL-containing dialysate to PBS to a final volume of 2000 μl. The LDL-oxidation was started by adding 5 μM CuCl2 and the changes in absorbance at wavelength 234 nm was followed over 225 minutes.

[2] = Plasma metallo-PLED by HPLC after oral (intragastric) administration to rats; format: in vivo; details: rat, 100 μmol/kg MnPLED into the stomach, 5 minutes after administration
Procedure: In order to get a rough estimate of the bioavailability of MnPLED after oral administration, rats were instilled with MnPLED into the stomach and the plasma concentrations of metallo-PLED was determined at various times after administration.
100 μmol/kg MnPLED was instilled into the stomach. Blood (ca 4.5 ml) was withdrawn by cardiac puncture (under CO2 -anaesthesia) and collected in tubes containing heparin (trace metal analysis tubes), 5, 30, 60, 120 minutes and 24 hours after oral administration (2 rats for each time point). Plasma was prepared by centrifugation and ultrafiltration and metallo-PLED was determined by HPLC as described by Toft et al. 1997 (Acta Radiologica 38: 677-689).

Row | Substance | inhibition of LDL oxidation, concentration dependence [1] | inhibition of LDL oxidation at 5 μM [1] | inhibition of LDL oxidation at 10 μM [1] | presence of MnPLED in plasma ([2]; one animal) | transmetallation of MnPLED into ZnPLED ([2]; plasma)
1 | MnDPDP | inhibited LDL oxidation in a concentration-dependent manner | more than 50% | almost complete inhibition | – | –
2 | dihydrogen [N,N'-ethylenebis [N-[[3-hydroxy-5-(hydroxymethyl)-2-methyl-4-pyridyl]methyl] glycinato] (4-)] manganate(2-) [MnPLED] | inhibited LDL oxidation in a concentration-dependent manner | more than 50% | almost complete inhibition | may indicate the presence of small amounts of MnPLED in plasma | most of the MnPLED has already been transmetallated into ZnPLED
